Source: patent US9598384B2, “3-(2-amino-ethyl)-alkylidene)-thiazolidine-2,4-dione and 1-(2-amino-ethyl)-alkylidene-1,3-dihydro-indol-2-one derivatives as selective sphingosine kinase 2 inhibitors” (VIRGINIA COMMONWEALTH UNIVERSITY, priority 2012, dated 2017)

Experiments:
SphK1 = SphK1 (Homo sapiens, UniProt Q9NYA1); assay: SphK1 activity assay; format: biochemical; conditions: relative activity vs no inhibitor; compounds at 10 μM (FIGS. 1, 4, 6)
Method: A) SphK1 and SphK2 activities were measured with 5 μM sphingosine in the absence or presence of the indicated concentrations of K145 or 10 μM DMS. Data are expressed as percentage SphK activity in the absence of inhibitor; B) Effect of K145 (10 μM) on activity of the indicated enzymes was tested by SelectScreen Kinase Profiling from Invitrogen. CaMK11β, Ca2+/calmodulin-dependent protein kinase II; CDK2, cyclin-dependent kinase 2; EGFR, Epidermal Growth Factor Receptor; Fyn, Fyn Kinase (p55); ERK2, extracellular signal-regulated kinase 2; ERK1, extracellular signal-regulated kinase 1; PKA, protein kinase A; PKCα, protein kinase C α; P13K, phosphatidylinositide 3-kinase. Data are expressed as percentage of control activity averaged from 2 independent experiments.
FIG. 3. SphK2 was incubated with indicated compounds at 10 μM, then the activity of SphK2 was determined. The data shown here is a relative activity of SphK2 compared to control (no inhibitor, column labeled Sph in the Figure). 96047 is a known SpK2 inhibitor. A5, B26, K25 and QLA13 are known compounds [Li et al. (2009) Bioorg Med Chem Lett 19: 6042-6046; Liu et al. (2012) Eur J Med Chem 47: 125-137] and were tested for purposes of comparison. “A” and “B” refer to different batches of a compound. FIG. 4. SphK1 was incubated with indicated compounds at 10 μM, then the activity of SphK1 was determined. The data shown here is a relative activity of SphK1 compared to control (no inhibitor, column labeled Sph in the Figure). 96091 is a known Spk1 inhibitor. A5, B26, K25 and QLA13 are as above for […]. “A” and “B” refer to different batches of a compound.
FIG. 6. SphK1 was incubated with indicated compounds at 10 μM, then the activity of SphK2 was determined. The data shown here is a relative activity of SphK2 compared to control (no inhibitor).

SphK2 = biological target: T1, SphK2 (Homo sapiens, UniProt Q9NRA0); assay: SphK2 activity assay (sphingosine substrate, with kinetic study); format: biochemical; conditions: relative activity vs no inhibitor; compounds at 10 μM (FIGS. 1, 3, 5)
T1 sequence (Q9NRA0 1-654): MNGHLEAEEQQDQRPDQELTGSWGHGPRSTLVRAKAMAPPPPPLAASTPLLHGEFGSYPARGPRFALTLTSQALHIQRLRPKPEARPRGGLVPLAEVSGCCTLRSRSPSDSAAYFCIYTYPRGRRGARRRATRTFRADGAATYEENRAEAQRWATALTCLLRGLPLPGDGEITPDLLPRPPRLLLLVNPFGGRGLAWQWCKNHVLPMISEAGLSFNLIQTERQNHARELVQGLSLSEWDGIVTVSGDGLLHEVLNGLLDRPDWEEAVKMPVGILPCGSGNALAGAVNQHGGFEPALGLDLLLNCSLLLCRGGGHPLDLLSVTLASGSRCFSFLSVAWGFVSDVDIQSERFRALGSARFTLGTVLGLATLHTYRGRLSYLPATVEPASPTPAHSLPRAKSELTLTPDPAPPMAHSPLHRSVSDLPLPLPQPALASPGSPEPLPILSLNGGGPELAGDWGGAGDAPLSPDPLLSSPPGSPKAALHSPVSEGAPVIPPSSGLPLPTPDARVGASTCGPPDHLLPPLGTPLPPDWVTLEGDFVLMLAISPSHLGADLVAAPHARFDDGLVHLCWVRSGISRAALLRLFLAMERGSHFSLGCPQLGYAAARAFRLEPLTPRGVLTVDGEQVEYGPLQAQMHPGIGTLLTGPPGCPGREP
Method: A) SphK1 and SphK2 activities were measured with 5 μM sphingosine in the absence or presence of the indicated concentrations of K145 or 10 μM DMS. […] Data are expressed as percentage of control activity averaged from 2 independent experiments. Data are expressed as mean value±SEM.
SphK2 was incubated with indicated compounds at 10 μM, then the activity of SphK2 was determined. The data shown here is a relative activity of SphK2 compared to control (no inhibitor, column labeled Sph in the Figure). […] “A” and “B” refer to different batches of a compound.
SphK2 was incubated with indicated compounds at 10 μM, then the activity of SphK2 was determined. The data shown here is a relative activity of SphK2 compared to control (no inhibitor).

[1] = system: human leukemia U937 cells; assay: Cell viability assay in human leukemia U937 cells; format: cell-based; conditions: Homo sapiens, U-937; 24 hrs treatment, MTT assay; read-out: IC50 ± SEM, inhibition of U937 cell proliferation
Method: Cells were cultured at a density of 5×10^4 (U937) or 1×10^4 (PC-3, DU145, M12, HT29) cells per well in flat bottomed 96-well plates and treated with various concentrations of test compound at 37° C. (5% CO2). After 24 h, 20 μL of CellTiter 96® Aqueous One Solution Reagent (Promega, Madison, Wis.) was added to each well according to the manufacturer's instructions. After 1 hour, the cell viability was determined by measuring the absorbance at 490 nm using a micro-plate reader.

U937 cells = assay: Cell apoptosis assay, annexin V/PI flow cytometry; format: cell-based, human; conditions: 24 hrs treatment
Method: Apoptosis was measured by flow cytometry using annexin V/propidium iodide (PI) as staining reagent. […] The cells were then incubated with annexin V-fluorescein isothiocyanate (FITC) (BD PharMingen, San Diego, Calif.) and 5 μg/mL propidium iodide (PI), and incubated for 15 minutes at room temperature in the dark per the manufacturer's instructions. The samples were analyzed by flow cytometry using a Becton Dickinson FACScan (Becton Dickinson, San Jose, Calif.) within 1 hr to determine the percentage of cells displaying annexin V staining (early apoptosis) or both annexin V and PI staining (late apoptosis).

[2] = system: Raf/MEK/ERK and PI3K/Akt signaling pathways; assay: Western blot analysis of ERK and Akt phosphorylation; format: cell-based; conditions: Western blot, FIGS. 9 and 10
Method: Cells (5×10^5 per ml) were treated with various concentrations of test compound at 37° C. (5% CO2) for 3 hrs, then stimulated with TPA at a final concentration of 200 nM for 20 min. Samples from whole-cell pellets were prepared and 30 μg protein for each condition was subjected to SDS-PAGE, transferred onto a PVDF membrane, and blocked with 5% fat-free milk for 30 min. The membrane is probed with primary antibodies overnight at 4° C. followed by incubation with horseradish peroxidase-labeled anti-mouse IgG (1:5000, BD Bioscience). The immunoreactive bands are detected by chemilluminescence methods (Pierce) and visualized on Kodak Omat film. The following primary antibodies were used: phospho-p44/42 MAPK (ERK1/2, Thr202/Tyr204), p44/42 MAPK, phospho-p90RSK (Thr359/Ser363), RSK1/RSK2/RSK3 (Cell Signaling). Blots were reprobed with antibodies against α-tubulin to ensure equal loading and transfer of proteins.

U937 xenograft [3] = assay: U937 xenografts in nude mice, i.p. administration; format: in vivo, BALB/c-nu mice; conditions: 15 mg/kg daily i.p.
Method: D) Body weights of mice throughout treatment. Data are expressed as mean value±SD. *P<0.05 compared to control group.
Female nude mice (BALB/c-nu, n=7) were inoculated with 3×10^7 U937 cells subcutaneously in the right flank. After 7 days of implant of U937 cells, mice were treated daily with Vehicle (control), or Tamibarotene (15 mg/Kg, positive control), or Formula III (K145) (15 mg/Kg) by i.p. administration. Tumor size was measured every other day.

U937 xenograft [4] = assay: U937 xenografts in nude mice, oral administration; conditions: oral gavage daily 15 days; K145 50 mg/kg, tamibarotene 20 mg/kg
Method: BALB/c-nu mice (n=7) with palpable U937 xenograft were treated daily with vehicle, tamibarotene (20 mg/kg), or K145 (50 mg/kg) for 15 days by oral gavage. After treatment, animals were sacrificed and tumors were removed, weighed and images were taken. […] Data are expressed as mean value±SEM. *P<0.05 compared to control group.
In this experiment, K145 was given at 50 mg/kg by oral gavage daily for 15 days and tumor volume and animal weights were measured every other day. Again, tamibarotene (20 mg/kg) was used as positive control.

Sequence of SphK1 (Q9NYA1 whole entry, species assumed): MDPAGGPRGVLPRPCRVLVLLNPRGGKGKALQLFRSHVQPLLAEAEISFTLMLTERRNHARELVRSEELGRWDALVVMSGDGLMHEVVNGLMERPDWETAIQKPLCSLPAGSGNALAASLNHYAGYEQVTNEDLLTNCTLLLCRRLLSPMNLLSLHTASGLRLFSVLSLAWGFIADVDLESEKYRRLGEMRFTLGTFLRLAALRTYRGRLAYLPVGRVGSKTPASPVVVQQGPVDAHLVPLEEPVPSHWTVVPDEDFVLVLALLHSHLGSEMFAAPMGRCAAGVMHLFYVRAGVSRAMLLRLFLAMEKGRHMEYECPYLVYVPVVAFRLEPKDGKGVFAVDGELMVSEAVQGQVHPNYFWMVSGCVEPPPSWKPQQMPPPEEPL

IC50 [1] | SMILES | inhibition of SphK1 activity (in words) (SphK1) | inhibition of SphK2 activity (in words) (SphK2) | other results
950 ± 110 nM | CCOc1ccc(CCC=C2C(=O)N(CCN)c3ccccc32)cc1 [S-II-102, 1-(2-aminoethyl)-3-(3-(4-ethoxyphenyl)propylidene)indolin-2-one] | – | – | –
3500 ± 300 nM | CCCCCCCOc1ccc(CCC=C2C(=O)N(CCN)c3ccccc32)cc1 [S-II-103, 1-(2-aminoethyl)-3-(3-(4-(heptyloxy)phenyl)propylidene)indolin-2-one] | did not inhibit SphK1 or inhibited SphK1 to a lesser extent | inhibited SphK2 selectively | apoptotic effects in U937 cells (U937 cells): mainly induced late apoptotic effects; inhibition of Raf/MEK/ERK and PI3K/Akt signaling pathways [2]: inhibit
2128 ± 6 nM | CCCCCCCCC=C1C(=O)N(CCN)c2ccccc21 [S-II-129, 1-(2-aminoethyl)-3-nonylideneindolin-2-one] | – | – | –

The remaining lines, values behind:

SMILES | IC50 [1] | inhibition of SphK1 activity (in words) (SphK1) | inhibition of SphK2 activity (in words) (SphK2) | other results
CCCCCCCOc1ccc(CC/C=C2\SC(=O)N(CCNC(=N)N)C2=O)cc1 [K11167] | – | inhibits both Sphk1 and Sphk2 | inhibits both Sphk1 and Sphk2 | –
CCCCCCCCCCCOc1ccc(CC/C=C2\SC(=O)N(CCN)C2=O)cc1 [KLII123] | – | did not inhibit SphK1 or inhibited SphK1 to a lesser extent | inhibited SphK2 selectively | –
CCCCCCCCCOc1ccc(CC/C=C2\SC(=O)N(CCN)C2=O)cc1 [KLII157] | – | did not inhibit SphK1 or inhibited SphK1 to a lesser extent | inhibited SphK2 selectively | –
NCCN1C(=O)C(=CCCC2CCCCC2)c2ccccc21 [S-II-36, 1-(2-aminoethyl)-3-(3-cyclohexylpropylidene)indolin-2-one] | 2700 ± 200 nM | – | – | –
NCCN1C(=O)C(=CCCc2ccc(F)cc2)c2ccccc21 [S-II-39, 1-(2-aminoethyl)-3-(3-(4-fluorophenyl)propylidene)indolin-2-one] | 2690 ± 60 nM | – | – | –
NCCN1C(=O)C(=CCCC2CC2)c2ccccc21 [S-II-40, 1-(2-aminoethyl)-3-(3-cyclopropylpropylidene)indolin-2-one] | 1160 ± 50 nM | – | – | –
NCCN1C(=O)C(=CCCc2ccc(Cl)cc2)c2ccccc21 [S-II-60, 1-(2-aminoethyl)-3-(3-(4-chlorophenyl)propylidene)indolin-2-one] | 4000 ± 700 nM | – | – | –
NCCN1C(=O)C(=CCCc2ccc([N+](=O)[O-])cc2)c2ccccc21 [S-II-61, 1-(2-aminoethyl)-3-(3-(4-nitrophenyl)propylidene)indolin-2-one] | 3600 ± 200 nM | – | – | –
COc1ccc(CCC=C2C(=O)N(CCN)c3ccccc32)cc1 [S-II-71, 1-(2-aminoethyl)-3-(3-(4-methoxyphenyl)propylidene)indolin-2-one] | 920 ± 40 nM | – | – | apoptotic effects in U937 cells (U937 cells): induced both early and late apoptotic effect; inhibition of Raf/MEK/ERK and PI3K/Akt signaling pathways [2]: inhibit
NCCN1C(=O)C(=CCCC23CC4CC(CC(C4)C2)C3)c2ccccc21 [S-II-73, 3-(3-(3r,5r,7r)-adamantan-1-yl)propylidene)-1-(2-aminoethyl)indolin-2-one] | – | did not inhibit SphK1 or inhibited SphK1 to a lesser extent | inhibited SphK2 selectively | –
CCCCOc1ccc(CCC=C2C(=O)N(CCN)c3ccccc32)cc1 [S-II-78, 1-(2-aminoethyl)-3-(3-(4-butoxyphenyl)propylidene)indolin-2-one] | 4600 ± 800 nM | – | – | –
CCCCCCCOc1ccc(CC/C=C2/C(=O)N(CCN)c3ccccc32)cc1 [S-II-104] | – | did not inhibit SphK1 or inhibited SphK1 to a lesser extent | inhibited SphK2 selectively | –
CC1(C)CCC(C)(C)c2cc(NC(=O)c3ccc(C(=O)O)cc3)ccc21 [tamibarotene, reference compound] | – | – | – | TGI (tumor growth inhibition) (U937 xenograft [3]; 17 days): 50.4%; body weights of mice (U937 xenograft [3]; compared with vehicle): caused body weight decreases; TGI (tumor growth inhibition) (U937 xenograft [4]): 33.37%
